Results: patent US6455587B1 (priority 2000, dated 2002)

Each molecule was assayed against T1, recombinant HIV-1 protease (Human immunodeficiency virus type 1 group M subtype B, UniProt P04585) (assay: Enzymatic fluorometric (FRET) assay for determining the inhibition constant (Ki) against HIV protease). Settings: Ki (nM).
T1 construct: recombinant HIV-1 protease (final concentration 2.18 nM) purchased from Bachem Bioscience; purchased Bachem Bioscience
Format: biochemical
Excerpt: An Enzymatic assay for determining the inhibition constant (Ki) of synthetic compounds targeting the HIV protease may be carried out as follows: This is a fluorometric assay based on the cleavage by protease of a substrate carrying a donor group (EDANS) and an acceptor group (DABCYL) on each side of the cleavage site, interacting together through fluorescence resonance energy transfer (FRET). Cleavage of the substrate by protease stops energy exchange between the two groups, resulting in a time-dependent increase in fluorescence intensity that is linearly related to the extent of substrate hydrolysis.
The enzymatic assay is done at 31° C. in white 96-well fluorescence microplates, in a total volume of 200 μL per well. The apparatus used for analysis is a FL600 fluorescence microplate reader (Biotek Instruments). […] Excitation of the fluorophore is done at 340 nm and emission at 485 nm is recorded continuously during the reaction, allowing determination of the enzyme's initial velocity (v0). At the end of the 4 min incubation, the potential inhibitor at a defined concentration in a volume of 4 μL is added to the reaction, and fluorescence readings are taken for another 4 min, allowing determination of enzyme velocity (vi) in the presence of the inhibitory compound. Several concentrations of the putative inhibitors are tested in the assay. After calculation of v0 and vi, the inhibition constant (Ki) of the compound is determined using the equation of Henderson: [formula]
and [I]=inhibitor concentration, [S]=substrate concentration,
Km=Michaelis-Menten constant, Kiapp=apparent Ki
Graphs are traced and the Ki determined using GraphPad Prism software v. 3.0.

Molecule	Ki [nM]
Cc1ccc(S(=O)(=O)N(CC(C)C)[C@@H](CCCCNC(=O)OCC2c3ccccc3-c3ccccc32)C(=O)O)cc1 [Compound 67, Nα-Isobutyl-Nα-(4-methylbenzenesulfonyl)-Nε-(9-fluorenylmethoxycarbonyl)-L-lysine]	4.3

Same assay, conditions: Ki (nM), fluorometric FRET assay, recombinant HIV-1 protease, pH 4.7, 31° C.

Molecule	Ki [nM]
CC(C)CN([C@@H](CCCCNC(=O)C=Cc1ccccc1[N+](=O)[O-])C(=O)O)S(=O)(=O)c1ccc([N+](=O)[O-])cc1 [Compound 109, Nα-Isobutyl-Nα-(4-nitrobenzenesulfonyl)-Nε-(2-nitrocinnamoyl)-L-lysine]	> 300

Same assay, conditions: fluorometric FRET assay, 31° C., pH 4.7, recombinant HIV-1 protease 2.18 nM, substrate 10 μM; read-out: Ki

Molecule	Ki [nM]
COc1ccc(C=CC(=O)NCCCC[C@@H](C(=O)O)N(CC(C)C)S(=O)(=O)c2ccc([N+](=O)[O-])cc2)cc1OC [Compound 193, Nα-Isobutyl-Nα-(4-nitrobenzenesulfonyl)-Nε-(3,4-dimethoxycinnamoyl)-L-lysine]	> 75
COc1ccc(CCC(=O)NCCCC[C@@H](C(=O)O)N(CC(C)C)S(=O)(=O)c2ccc(N)cc2)cc1OC [Compound 200, Nα-Isobutyl-Nα-(4-aminobenzenesulfonyl)-Nε-(3,4-dimethoxydihydrocinnamoyl)-L-lysine]	132
Cc1ccc(S(=O)(=O)N(CC(C)C)[C@@H](CCCCNC(=O)COc2ccccc2)C(=O)O)cc1 [Compound 203, Nα-Isobutyl-Nα-(4-methylbenzenesulfonyl)-Nε-phenoxyacetyl-L-lysine]	17.5
Nα-Isobutyl-Nα-(4-methylbenzenesulfonyl)-Nε-phenylthioacetyl-L-lysine [Compound 202]	18

Same assay, conditions: fluorometric FRET assay, recombinant HIV-1 protease, pH 4.7, 31° C.; read-out: Ki

Molecule	Ki [nM]
CC(C)CN([C@@H](CCCCNC(=O)/C=C/c1cccnc1)C(=O)O)S(=O)(=O)c1ccc([N+](=O)[O-])cc1 [Compound 164, Nα-Isobutyl-Nα-(4-nitrobenzenesulfonyl)-Nε-(trans-3-(3-pyridyl)acryloyl)-L-lysine]	> 300
O=C(N[C@@H](CCCCNS(=O)(=O)c1cccc2cccnc12)C(=O)O)OCC1c2ccccc2-c2ccccc21 [Compound 28, Nε-(8-Quinolinesulfonyl)-Nα-(9-fluorenylmethoxycarbonyl)-L-lysine]	15000
O=C(O)[C@H](CCCCNS(=O)(=O)c1ccc(Br)cc1)NS(=O)(=O)c1ccc(Br)cc1 [Compound 17, Nα,Nε-di-(4-Bromobenzenesulfonyl)-L-lysine]	7700
O=C(N[C@@H](CCCCNS(=O)(=O)c1ccccc1)C(=O)O)OCC1c2ccccc2-c2ccccc21 [Compound 49, Nε-Benzenesulfonyl-Nα-(9-fluorenylmethoxycarbonyl)-L-lysine]	8900
CC(C)CN(C(CCCCNC(=O)OCC1c2ccccc2-c2ccccc21)C(=O)O)S(=O)(=O)c1ccc(F)cc1 (racemic) [Compound 3, Nα-Isobutyl-Nα-(4-fluorobenzenesulfonyl)-Nε-(9-fluorenylmethoxycarbonyl)-DL-lysine]	17.4
O=C(N[C@@H](CCCCNS(=O)(=O)c1ccc(Cl)cc1)C(=O)O)OCC1c2ccccc2-c2ccccc21 [Compound 53, Nε-(4-Chlorobenzenesulfonyl)-Nα-(9-fluorenylmethoxycarbonyl)-L-lysine]	4800
O=C(NCCCC[C@H](NS(=O)(=O)c1ccc(Cl)cc1)C(=O)O)OCC1c2ccccc2-c2ccccc21 [Compound 72, Nα-(4-Chlorobenzenesulfonyl)-Nε-(9-fluorenylmethoxycarbonyl)-L-lysine]	2380
Cc1ccc(S(=O)(=O)N(CC(C)C)[C@@H](CCCCNC(=O)OCc2ccccc2)C(=O)OCc2ccccc2)cc1 [Compound 75, Nα-isobutyl-Nα-(4-methylbenzenesulfonyl)-Nε-benzyloxycarbonyl-L-lysine Benzyl Ester]	> 1250
Cc1ccc(S(=O)(=O)N(CC(C)C)[C@@H](CCCCNC(=O)/C=C/c2ccccc2)C(=O)O)cc1 [Compound 90]	747
O=C(NCCCC[C@H](NS(=O)(=O)c1cccc2ccccc12)C(=O)O)OCC1c2ccccc2-c2ccccc21 [Compound 102, Nα-(1-Naphthalenesulfonyl)-Nε-(9-fluorenylmethoxycarbonyl)-L-lysine]	2320
CC(C)CN([C@@H](CCCCNC(=O)CCc1ccc2c(c1)OCO2)C(=O)O)S(=O)(=O)c1ccc(N)cc1 [Compound 155, Nα-Isobutyl-Nα-(4-aminobenzenesulfonyl)-Nε-(3,4-methylenedioxydihydrocinnamoyl)-L-lysine]	15.7
Cc1ccc(S(=O)(=O)NCCC[C@H](NC(=O)OCC2c3ccccc3-c3ccccc32)C(=O)O)cc1 [Compound 149, Nδ-(4-Methylbenzenesulfonyl)-Nα-(9-fluorenylmethoxycarbonyl)-L-ornithine]	10100
Cc1ccc(S(=O)(=O)N(CC(C)C)C(CCCCNC(=O)OCC2c3ccccc3-c3ccccc32)C(=O)NO)cc1 [Compound 141, (2R,2S)-N-Isobutyl-N-(4-methylbenzenesulfonylamino)-6-(9-fluorenylmethoxycarboxylamino)-1-hydroxylhexamide]	245
O=C(NCCCC[C@H](NS(=O)(=O)c1ccccc1[N+](=O)[O-])C(=O)O)OCC1c2ccccc2-c2ccccc21 [Compound 107, Nα-(2-Nitrobenzenesulfonyl)-Nε-(9-fluorenylmethoxycarbonyl)-L-lysine]	3970
Nα-(4-Bromobenzenesulfonyl)-Nε-(9-fluorenylmethoxycarbonyl)-L-lysine [Compound 66]	> 6500
COc1ccc(C=CC(=O)NCCCC[C@@H](C(=O)O)N(CC(C)C)S(=O)(=O)c2ccc([N+](=O)[O-])cc2)cc1 [Compound 113, Nα-Isobutyl-Nα-(4-nitrobenzenesulfonyl)-Nε-(4-methoxycinnamoyl)-L-lysine]	> 300
NC(=O)C(CCCCNS(=O)(=O)c1ccc(Br)cc1)NC(=O)OCC1c2ccccc2-c2ccccc21 [Compound 20, (2R,2S)-(9-Fluorenylmethoxycarbonylamino)-6-(4-bromobenzenesulfonylamino)-1-hexanamide]	23000
CC(C)CN([C@@H](CCCCNS(=O)(=O)Cc1ccccc1)C(=O)O)S(=O)(=O)c1ccc([N+](=O)[O-])cc1 [Compound 115, Nα-Isobutyl-Nα-(4-nitrobenzenesulfonyl)-Nε-benzylsulfonyl-L-lysine]	> 300
Cc1cc(C)c(S(=O)(=O)N(CC(C)C)[C@@H](CCCCNC(=O)OCC2c3ccccc3-c3ccccc32)C(=O)O)c(C)c1 [Compound 42, Nα-Isobutyl-Nα-(2,4,6-trimethylbenzenesulfonyl)-Nε-(9-fluorenylmethoxycarbonyl)-L-lysine]	> 100
O=C(N[C@@H](CCCCNS(=O)(=O)c1ccccc1Br)C(=O)O)OCC1c2ccccc2-c2ccccc21 [Compound 24, Nε-(2-Bromobenzenesulfonyl)-Nα-(9-fluorenylmethoxycarbonyl)-L-lysine]	36000
CC(C)CN([C@@H](CCCCNC(=O)C=Cc1ccc2c(c1)OCO2)C(=O)O)S(=O)(=O)c1ccc([N+](=O)[O-])cc1 [Compound 163, Nα-Isobutyl-Nα-(4-nitrobenzenesulfonyl)-Nε-(3,4-methylenedioxycinnamoyl)-L-lysine]	> 300
O=C(N[C@@H](CCCCNS(=O)(=O)c1ccc(Br)cc1)C(=O)O)C1c2ccccc2-c2ccccc21 [Compound 38, Nα-(9-Fluorenecarbonyl)-Nε-(4-bromobenzenesulfonyl)-L-lysine]	4700
Nα-Isobutyl-Nα-(4-methylbenzenesulfonyl)-Nε-phenylthioacetyl-L-lysine [Compound 202]	8400
Cc1ccc(S(=O)(=O)N(CC(C)C)[C@@H](CCCCNC(=O)C(c2ccccc2)c2ccccc2)C(=O)O)cc1 [Compound 86]	171
